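Tested at 5 concentrations; 48 h exposure; 96-well plates; endpoints linearly interpolated, else capped at highest concentration. Definition used: TGI = concentration required for complete inhibition of growth.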
Key:
Assay in all cases: NCI anticancer screen, dose series, 48 h
[1] = tested on: HS 578T breast
[2] = tested on: COLO 205 colon
[3] = tested on: KM12 colon
[4] = tested on: SW-620 colon
[5] = tested on: OVCAR-3 ovarian
[6] = tested on: UO-31 renal
[7] = tested on: HOP-62 NSCLC
[8] = tested on: MDA-N
[9] = tested on: HCC-2998 colon
[10] = tested on: MCF7 breast
[11] = tested on: OVCAR-4 ovarian
[12] = tested on: 786-0 renal
[13] = tested on: SK-OV-3 ovarian
[14] = tested on: UACC-62 melanoma
[15] = tested on: NCI-H23 lung
[16] = tested on: K-562 leukemia
[17] = tested on: UACC-257 melanoma
[18] = tested on: RPMI-8226 leukemia
[19] = tested on: A549 NSCLC
[20] = tested on: SK-MEL-5 melanoma
[21] = tested on: SF-295 CNS
[22] = tested on: ACHN renal
[23] = tested on: LOX IMVI melanoma
[24] = tested on: T-47D breast
[25] = tested on: SF-268 CNS
[26] = tested on: RXF 393 renal
[27] = tested on: PC-3 prostate
[28] = tested on: HCT-15 colon
[29] = tested on: HL-60(TB) leukemia
[30] = tested on: M14 melanoma
[31] = tested on: HT29 colon
[32] = tested on: MDA-MB-435
[33] = tested on: OVCAR-8 ovarian
[34] = tested on: TK-10 renal
[35] = tested on: NCI/ADR-RES ovarian
[36] = tested on: NCI-H460 lung
[37] = tested on: CAKI-1 renal
[38] = tested on: OVCAR-5 ovarian
[39] = tested on: MALME-3M melanoma
[40] = tested on: SF-539 CNS
[41] = tested on: CCRF-CEM leukemia
[42] = tested on: SNB-19 CNS
[43] = tested on: EKVX NSCLC
[44] = tested on: MDA-MB-231 breast
[45] = tested on: SK-MEL-28 melanoma
[46] = tested on: HOP-92 NSCLC
[47] = tested on: IGROV1 ovarian
[48] = tested on: U251 CNS
[49] = tested on: NCI-H522 lung
[50] = tested on: A498 renal
[51] = tested on: SNB-75 CNS
[52] = tested on: DU-145 prostate
[53] = tested on: SR leukemia
[54] = tested on: NCI-H226 lung
[55] = tested on: MOLT-4 leukemia
[56] = tested on: SK-MEL-2 melanoma
[57] = tested on: BT-549 breast
[58] = tested on: HCT-116 colon

O=C1CCC2(CC1CCS(=O)c1ccccc1)OCCO2 (stereo unspecified)
TGI [1]: > 100 µM
TGI [2]: > 100 µM
TGI [3]: > 100 µM
TGI [4]: > 100 µM
TGI [5]: > 100 µM
TGI [6]: > 100 µM
TGI [7]: > 100 µM
TGI [8]: > 100 µM
TGI [9]: > 100 µM
TGI [10]: > 100 µM
TGI [11]: > 100 µM
TGI [12]: > 100 µM
TGI [13]: > 100 µM
TGI [14]: > 100 µM
TGI [15]: > 100 µM
TGI [16]: > 100 µM
TGI [17]: > 100 µM
TGI [18]: > 100 µM
TGI [19]: > 100 µM
TGI [20]: > 100 µM
TGI [21]: > 100 µM
TGI [22]: > 100 µM
TGI [23]: > 100 µM
TGI [24]: > 100 µM
TGI [25]: > 100 µM
TGI [26]: > 100 µM
TGI [27]: > 100 µM
TGI [28]: > 100 µM
TGI [29]: > 100 µM
TGI [30]: > 100 µM
TGI [31]: > 100 µM
TGI [32]: > 100 µM
TGI [33]: > 100 µM
TGI [34]: > 100 µM
TGI [35]: > 100 µM
TGI [36]: > 100 µM
TGI [37]: > 100 µM
TGI [38]: > 100 µM
TGI [39]: > 100 µM
TGI [40]: > 100 µM
TGI [41]: > 100 µM
TGI [42]: > 100 µM
TGI [43]: > 100 µM
TGI [44]: > 100 µM
TGI [45]: > 100 µM
TGI [46]: > 100 µM
TGI [47]: > 100 µM
TGI [48]: > 100 µM
TGI [49]: > 100 µM
TGI [50]: > 100 µM
TGI [51]: > 100 µM
TGI [52]: > 100 µM
TGI [53]: > 100 µM
TGI [54]: > 100 µM
TGI [55]: > 100 µM
TGI [56]: > 100 µM

CCOP(=O)(Nc1ccc(-c2ccc(N)cc2)cc1)OCC
TGI [1]: > 100 µM
TGI [2]: > 100 µM
TGI [3]: > 100 µM
TGI [5]: > 100 µM
TGI [57]: > 100 µM
TGI [6]: > 100 µM
TGI [7]: > 100 µM
TGI [8]: > 100 µM
TGI [9]: > 100 µM
TGI [58]: > 100 µM
TGI [10]: > 100 µM
TGI [11]: > 100 µM
TGI [12]: > 100 µM
TGI [13]: > 100 µM
TGI [14]: > 100 µM
TGI [15]: > 100 µM
TGI [16]: > 100 µM
TGI [17]: > 100 µM
TGI [18]: > 100 µM
TGI [19]: > 100 µM
TGI [20]: > 100 µM
TGI [21]: > 100 µM
TGI [22]: > 100 µM
TGI [25]: > 100 µM
TGI [26]: 98.8 µM
TGI [27]: > 100 µM
TGI [28]: > 100 µM
TGI [30]: > 100 µM
TGI [31]: > 100 µM
TGI [32]: > 100 µM
TGI [33]: > 100 µM
TGI [34]: > 100 µM
TGI [35]: > 100 µM
TGI [36]: > 100 µM
TGI [37]: > 100 µM
TGI [38]: > 100 µM
TGI [39]: > 100 µM
TGI [42]: > 100 µM
TGI [43]: > 100 µM
TGI [44]: > 100 µM
TGI [45]: > 100 µM
TGI [46]: > 100 µM
TGI [47]: > 100 µM
TGI [48]: > 100 µM
TGI [49]: > 100 µM
TGI [50]: > 100 µM
TGI [51]: > 100 µM
TGI [52]: > 100 µM
TGI [55]: > 100 µM
TGI [56]: > 100 µM

— PubChem BioAssay (NCI)
